# From patent US20130072430A1, “METHODS FOR TREATMENT OR PROPHYLAXIS OF KIDNEY OR LIVER DYSFUNCTION” (NPS PHARMACEUTICALS, INC., priority 2010, published 2013)
# System: Human patients with short bowel syndrome
# Assay: Example 2: liver biomarkers (albumin, gamma glutamyl transferase, total bilirubin, ALT, AST, ALP) in short bowel syndrome patients, every four weeks for 24 weeks
# Assay type: in vivo
# Conditions: 0.05 mg/kg/d; for Gamma Glutamyl Transferase Change from Baseline, Median / Gamma Glutamyl Transferase Observed Value, Mean / Gamma Glutamyl Transferase Observed Value, Median / ALKALINE PHOSPHATASE Change from Baseline, Median / ALT Change from Baseline, Mean / ALT Change from Baseline, Median / ALT Observed Value, Mean / ALT Observed Value, Median / AST Change from Baseline, Mean / AST Change from Baseline, Median / AST Observed Value, Mean / AST Observed Value, Median / Albumin Change from Baseline, Mean / Albumin Change from Baseline, Median / Albumin Observed Value, Mean / Albumin Observed Value, Median / Alkaline Phosphatase Change from Baseline, Mean / Alkaline Phosphatase Observed Value, Mean / Alkaline Phosphatase Observed Value, Median / Bilirubin Change from Baseline, Mean / Bilirubin Change from Baseline, Median / Bilirubin Observed Value, Mean / Bilirubin Observed Value, Median / Gamma Glutamyl Transferase Change from Baseline, Mean: n=40; for ALT >10% decrease from Baseline, % of subjects / ALT >10% decrease from Baseline, n subjects / ALT >10% increase from Baseline, % of subjects / ALT >10% increase from Baseline, n subjects / ALT Within 10% of Baseline, % of subjects / ALT Within 10% of Baseline, n subjects / AST >10% decrease from Baseline, % of subjects / AST >10% decrease from Baseline, n subjects / AST >10% increase from Baseline, % of subjects / AST >10% increase from Baseline, n subjects / AST Within 10% of Baseline, % of subjects / AST Within 10% of Baseline, n subjects / Albumin >10% decrease from Baseline, % of subjects / Albumin >10% decrease from Baseline, n subjects / Albumin >10% increase from Baseline, % of subjects / Albumin >10% increase from Baseline, n subjects / Albumin Within 10% of Baseline, % of subjects / Albumin Within 10% of Baseline, n subjects / Alkaline Phosphatase >10% decrease from Baseline, % of subjects / Alkaline Phosphatase >10% decrease from Baseline, n subjects / Alkaline Phosphatase >10% increase from Baseline, % of subjects / Alkaline Phosphatase >10% increase from Baseline, n subjects / Alkaline Phosphatase Within 10% of Baseline, % of subjects / Alkaline Phosphatase Within 10% of Baseline, n subjects / Bilirubin >10% decrease from Baseline, % of subjects / Bilirubin >10% decrease from Baseline, n subjects / Bilirubin >10% increase from Baseline, % of subjects / Bilirubin >10% increase from Baseline, n subjects / Bilirubin Within 10% of Baseline, % of subjects / Bilirubin Within 10% of Baseline, n subjects: m=40
# Description: To further confirm the results of Example 1, a further study was conducted involving more individuals and additional diagnostic biomarkers. Human patients with short bowel syndrome were divided into two groups: a control group (43 total individuals) to receive placebo, and an experimental group (42 total individuals) to receive teduglutide at 0.05 mg/kg/day throughout the study. Patients were treated by subcutaneous injection of placebo or the appropriate dose of teduglutide. Known biomarkers of liver function were monitored every four weeks, for 24 weeks. The liver biomarkers tested included albumin, gamma glutamyl transferase, total bilirubin, ALT and AST and ALP. Before administration of placebo or teduglutide, diagnostic biomarker levels were tested to establish a baseline for each individual.
# To determine the effect of GLP-2 on the levels of the diagnostic biomarkers, the average level of each biomarker was measured for the placebo and teduglutide treated groups for each visit. Furthermore, the average change from baseline was calculated using the established baseline values. For FIGS. 17-28, p-values were calculated using the t-test.
# P values are provided, which were calculated for each distribution of biomarker changes for each week using the chi-squared test.
smiles,measurement,setting,value
CC[C@H](C)[C@H](NC(=O)[C@H](Cc1ccccc1)NC(=O)[C@H](CC(=O)O)NC(=O)[C@H](CCCNC(=N)N)NC(=O)[C@H](C)NC(=O)[C@H](C)NC(=O)[C@H](CC(C)C)NC(=O)[C@H](CC(N)=O)NC(=O)[C@H](CC(=O)O)NC(=O)[C@H](CC(C)C)NC(=O)[C@@H](NC(=O)[C@@H](NC(=O)[C@H](CC(N)=O)NC(=O)[C@H](CCSC)NC(=O)[C@H](CCC(=O)O)NC(=O)[C@H](CC(=O)O)NC(=O)[C@H](CO)NC(=O)[C@H](Cc1ccccc1)NC(=O)[C@H](CO)NC(=O)CNC(=O)[C@H](CC(=O)O)NC(=O)CNC(=O)[C@@H](N)Cc1c[nH]cn1)[C@@H](C)O)[C@@H](C)CC)C(=O)N[C@@H](CC(N)=O)C(=O)N[C@@H](Cc1c[nH]c2ccccc12)C(=O)N[C@@H](CC(C)C)C(=O)N[C@H](C(=O)N[C@@H](CCC(N)=O)C(=O)N[C@H](C(=O)N[C@@H](CCCCN)C(=O)N[C@H](C(=O)N[C@H](C(=O)N[C@@H](CC(=O)O)C(=O)O)[C@@H](C)O)[C@@H](C)CC)[C@@H](C)O)[C@@H](C)CC [teduglutide],"Gamma Glutamyl Transferase Change from Baseline, Median",Week 2,2.5 U/L
same,"Gamma Glutamyl Transferase Observed Value, Mean",Week 2,84.6 U/L
same,"Gamma Glutamyl Transferase Observed Value, Median",Week 2,52.5 U/L
same,"ALT >10% decrease from Baseline, % of subjects",Week 4,(65.0%)
same,"ALT >10% decrease from Baseline, n subjects",Week 4,26
same,"ALT >10% increase from Baseline, % of subjects",Week 4,(15.0%)
same,"ALT >10% increase from Baseline, n subjects",Week 4,6
same,"ALT Within 10% of Baseline, % of subjects",Week 4,(20.0%)
same,"ALT Within 10% of Baseline, n subjects",Week 4,8
same,"AST >10% decrease from Baseline, % of subjects",Week 4,(65.0%)
same,"AST >10% decrease from Baseline, n subjects",Week 4,26
same,"AST >10% increase from Baseline, % of subjects",Week 4,(20.0%)
same,"AST >10% increase from Baseline, n subjects",Week 4,8
same,"AST Within 10% of Baseline, % of subjects",Week 4,(15.0%)
same,"AST Within 10% of Baseline, n subjects",Week 4,6
same,"Albumin >10% decrease from Baseline, % of subjects",Week 4,(7.5%)
same,"Albumin >10% decrease from Baseline, n subjects",Week 4,3
same,"Albumin >10% increase from Baseline, % of subjects",Week 4,(5.0%)
same,"Albumin >10% increase from Baseline, n subjects",Week 4,2
same,"Albumin Within 10% of Baseline, % of subjects",Week 4,(87.5%)
same,"Albumin Within 10% of Baseline, n subjects",Week 4,35
same,"Alkaline Phosphatase >10% decrease from Baseline, % of subjects",Week 4,(55.0%)
same,"Alkaline Phosphatase >10% decrease from Baseline, n subjects",Week 4,22
same,"Alkaline Phosphatase >10% increase from Baseline, % of subjects",Week 4,(5.0%)
same,"Alkaline Phosphatase >10% increase from Baseline, n subjects",Week 4,2
same,"Alkaline Phosphatase Within 10% of Baseline, % of subjects",Week 4,(40.0%)
same,"Alkaline Phosphatase Within 10% of Baseline, n subjects",Week 4,16
same,"Bilirubin >10% decrease from Baseline, % of subjects",Week 4,(47.5%)
same,"Bilirubin >10% decrease from Baseline, n subjects",Week 4,19
same,"Bilirubin >10% increase from Baseline, % of subjects",Week 4,(35.0%)
same,"Bilirubin >10% increase from Baseline, n subjects",Week 4,14
same,"Bilirubin Within 10% of Baseline, % of subjects",Week 4,(17.5%)
same,"Bilirubin Within 10% of Baseline, n subjects",Week 4,7
same,"ALKALINE PHOSPHATASE Change from Baseline, Median",Week 4,−15.5 U/L
same,"ALT Change from Baseline, Mean",Week 4,−9.2 U/L
same,"ALT Change from Baseline, Median",Week 4,−7 U/L
same,"ALT Observed Value, Mean",Week 4,34.9 U/L
same,"ALT Observed Value, Median",Week 4,29 U/L
same,"AST Change from Baseline, Mean",Week 4,−3.5 U/L
same,"AST Change from Baseline, Median",Week 4,−5 U/L
same,"AST Observed Value, Mean",Week 4,29.1 U/L
same,"AST Observed Value, Median",Week 4,26.5 U/L
same,"Albumin Change from Baseline, Mean",Week 4,-0.7 g/L
same,"Albumin Change from Baseline, Median",Week 4,-1 g/L
same,"Albumin Observed Value, Mean",Week 4,41.7 g/L
same,"Albumin Observed Value, Median",Week 4,42 g/L
same,"Alkaline Phosphatase Change from Baseline, Mean",Week 4,−20.5 U/L
same,"Alkaline Phosphatase Observed Value, Mean",Week 4,115.8 U/L
same,"Alkaline Phosphatase Observed Value, Median",Week 4,101 U/L
same,"Bilirubin Change from Baseline, Mean",Week 4,-1.10 µmol/L
same,"Bilirubin Change from Baseline, Median",Week 4,-1.5 µmol/L
same,"Bilirubin Observed Value, Mean",Week 4,11.31 µmol/L
same,"Bilirubin Observed Value, Median",Week 4,9.55 µmol/L
same,"Gamma Glutamyl Transferase Change from Baseline, Mean",Week 4,1.7 U/L
same,"Gamma Glutamyl Transferase Change from Baseline, Median",Week 4,−0.5 U/L
same,"Gamma Glutamyl Transferase Observed Value, Mean",Week 4,78.9 U/L
same,"Gamma Glutamyl Transferase Observed Value, Median",Week 4,53.5 U/L
same,"ALT >10% decrease from Baseline, % of subjects",Week 8,(65.0%)
same,"ALT >10% decrease from Baseline, n subjects",Week 8,26
same,"ALT >10% increase from Baseline, % of subjects",Week 8,(17.5%)
same,"ALT >10% increase from Baseline, n subjects",Week 8,7
same,"ALT Within 10% of Baseline, % of subjects",Week 8,(17.5%)
same,"ALT Within 10% of Baseline, n subjects",Week 8,7
same,"AST >10% decrease from Baseline, % of subjects",Week 8,(60.0%)
same,"AST >10% decrease from Baseline, n subjects",Week 8,24
same,"AST >10% increase from Baseline, % of subjects",Week 8,(20.0%)
same,"AST >10% increase from Baseline, n subjects",Week 8,8
same,"AST Within 10% of Baseline, % of subjects",Week 8,(20.0%)
same,"AST Within 10% of Baseline, n subjects",Week 8,8
same,"Albumin >10% decrease from Baseline, % of subjects",Week 8,(2.5%)
same,"Albumin >10% decrease from Baseline, n subjects",Week 8,1
same,"Albumin >10% increase from Baseline, % of subjects",Week 8,(2.5%)
same,"Albumin >10% increase from Baseline, n subjects",Week 8,1
same,"Albumin Within 10% of Baseline, % of subjects",Week 8,(95.0%)
same,"Albumin Within 10% of Baseline, n subjects",Week 8,38
same,"Alkaline Phosphatase >10% decrease from Baseline, % of subjects",Week 8,(62.5%)
same,"Alkaline Phosphatase >10% decrease from Baseline, n subjects",Week 8,25
same,"Alkaline Phosphatase >10% increase from Baseline, % of subjects",Week 8,(5.0%)
same,"Alkaline Phosphatase >10% increase from Baseline, n subjects",Week 8,2
same,"Alkaline Phosphatase Within 10% of Baseline, % of subjects",Week 8,(32.5%)
same,"Alkaline Phosphatase Within 10% of Baseline, n subjects",Week 8,13
same,"Bilirubin >10% decrease from Baseline, % of subjects",Week 8,(50.0%)
same,"Bilirubin >10% decrease from Baseline, n subjects",Week 8,20
same,"Bilirubin >10% increase from Baseline, % of subjects",Week 8,(25.0%)
same,"Bilirubin >10% increase from Baseline, n subjects",Week 8,10
same,"Bilirubin Within 10% of Baseline, % of subjects",Week 8,(25.0%)
same,"Bilirubin Within 10% of Baseline, n subjects",Week 8,10
same,"ALKALINE PHOSPHATASE Change from Baseline, Median",Week 8,−18.5 U/L
same,"ALT Change from Baseline, Mean",Week 8,−10.2 U/L
same,"ALT Change from Baseline, Median",Week 8,−5.5 U/L
same,"ALT Observed Value, Mean",Week 8,33.9 U/L
same,"ALT Observed Value, Median",Week 8,26 U/L
same,"AST Change from Baseline, Mean",Week 8,−5.1 U/L
same,"AST Change from Baseline, Median",Week 8,−5 U/L
same,"AST Observed Value, Mean",Week 8,27.5 U/L
same,"AST Observed Value, Median",Week 8,23.5 U/L
same,"Albumin Change from Baseline, Mean",Week 8,-0.7 g/L
same,"Albumin Change from Baseline, Median",Week 8,-1 g/L
same,"Albumin Observed Value, Mean",Week 8,41.7 g/L
same,"Albumin Observed Value, Median",Week 8,42 g/L
same,"Alkaline Phosphatase Change from Baseline, Mean",Week 8,−24.3 U/L
same,"Alkaline Phosphatase Observed Value, Mean",Week 8,112.0 U/L
same,"Alkaline Phosphatase Observed Value, Median",Week 8,94 U/L
same,"Bilirubin Change from Baseline, Mean",Week 8,-1.60 µmol/L
same,"Bilirubin Change from Baseline, Median",Week 8,-0.95 µmol/L
same,"Bilirubin Observed Value, Mean",Week 8,10.81 µmol/L
same,"Bilirubin Observed Value, Median",Week 8,7.75 µmol/L
same,"Gamma Glutamyl Transferase Change from Baseline, Mean",Week 8,−5.7 U/L
